Measured values reported in US20080293583A1, “Methods for diagnosing mood disorders” (Wyeth, priority 2003, published 2008).

Legend:
Format in all cases: in vivo
[1] = system: Dihydropyrimidinase Related Protein-2 (DRP-2; CRMP-2; TOAD-64); assay: 2-DE proteome analysis of rat hippocampus: DRP-2/CRMP-2; settings: rat hippocampus cytosolic extract, 10 mg/kg i.p. daily 14 days, vs control; gel spot 1
Protocol: (§1) Animal dosing. Adult male Sprague Dawley rats weighing 230-320 g were housed with ad libitum access to food and water. After 1 week of habituation, rats were administered either an antidepressant or vehicle alone. The following drugs were administered intraperitoneally (i.p.): fluoxetine (10 mg/kg daily), venlafaxine (10 mg/kg daily) or vehicle alone (1 ml/kg normal saline daily) for 14 days (n=3 rats per group).
(§2) Sample preparation and cytosolic protein extraction. The animals were euthanized and hippocampi were rapidly dissected from the whole brain. Samples from each treatment group were pooled and stored at −85° C. Cytosolic extracts were prepared using the universal extraction kit from Sigma (prot-two) as follows: soluble cytoplasmic extraction reagent (S2688) was added to the hippocampal tissue (10 ml/250 mg wet weight). […]
(§3) Two-dimensional gel electrophoresis. […] Molecular masses were determined by running standard protein markers (Genomic Solutions Inc.), covering the range 10-200 kDa as well as internal verification via landmark proteins within the gel. […]
(§4) Protein fixation, silver staining and 2-D gel comparisons. […] Protein spots were outlined (first automatically and then manually) and quantified using the HT analyzer v2.2 software (Genomic Solutions Inc.). The software calculated the relative spot volume of the proteins compared with the total amount of protein in the gel. […]

[2] = system: Serine Protease Inhibitor 2.1 (SPI-2.1); assay: 2-DE proteome analysis of rat hippocampus: SPI-2.1; settings: rat hippocampus cytosolic extract, 10 mg/kg i.p. daily 14 days, vs control; gel spot 62
Protocol: as §1, §2, §3, §4

[3] = system: NG, NG-Dimethylarginine Dimethylaminohydrolase 1 (DDAH1); assay: 2-DE proteome analysis of rat hippocampus: DDAH1; settings: rat hippocampus cytosolic extract, 10 mg/kg i.p. daily 14 days, vs control; gel spot 18
Protocol: as §1, §2, §3, §4

[4] = system: Pyruvate Dehydrogenase E1 component beta subunit, mitochondrial (precursor); assay: 2-DE proteome analysis of rat hippocampus: Pyruvate Dehydrogenase E1 beta; settings: rat hippocampus cytosolic extract, 10 mg/kg i.p. daily 14 days, vs control; gel spot 26
Protocol: as §1, §2, §3, §4

[5] = system: L-Lactate Dehydrogenase B Chain; assay: 2-DE proteome analysis of rat hippocampus: L-Lactate Dehydrogenase B Chain; settings: rat hippocampus cytosolic extract, 10 mg/kg i.p. daily 14 days, vs control; gel spot 23
Protocol: as §1, §2, §3, §4

[6] = system: Ras-related protein RAB-4A; assay: 2-DE proteome analysis of rat hippocampus: RAB-4A; settings: rat hippocampus cytosolic extract, 10 mg/kg i.p. daily 14 days, vs control; gel spot 90 (mix)
Protocol: as §1, §2, §3, §4

[7] = system: Ras-related protein RAB-1B; assay: 2-DE proteome analysis of rat hippocampus: RAB-1B; settings: rat hippocampus cytosolic extract, 10 mg/kg i.p. daily 14 days, vs control; gel spot 90 (mix)
Protocol: as §1, §2, §3, §4

[8] = system: Fatty Acid-Binding Protein, Heart (H-FABP); assay: 2-DE proteome analysis of rat hippocampus: H-FABP; settings: rat hippocampus cytosolic extract, 10 mg/kg i.p. daily 14 days, vs control; gel spot 89
Protocol: as §1, §2, §3, §4

D-dopachrome tautomerase = assay: 2-DE proteome analysis of rat hippocampus: D-dopachrome tautomerase; settings: rat hippocampus cytosolic extract, 10 mg/kg i.p. daily 14 days, vs control; gel spot 93
Protocol: as §1, §2, §3, §4

[9] = system: Glutathione S-Transferase Yb3; assay: 2-DE proteome analysis of rat hippocampus: Glutathione S-Transferase Yb3; settings: rat hippocampus cytosolic extract, 10 mg/kg i.p. daily 14 days, vs control; gel spot 56
Protocol: as §1, §2, §3, §4

[10] = system: Proteasome subunit alpha type 2 (Multicatalytic endopeptidase complex subunit C3); assay: 2-DE proteome analysis of rat hippocampus: Proteasome subunit alpha type 2; settings: rat hippocampus cytosolic extract, 10 mg/kg i.p. daily 14 days, vs control
Protocol: as §1
Sample preparation and cytosolic protein extraction. The animals were euthanized and hippocampi were rapidly dissected from the whole brain. Samples from each treatment group were pooled and stored at −85° C. Cytosolic extracts were prepared using the universal extraction kit from Sigma (prot-two) as follows: soluble cytoplasmic extraction reagent (S2688) was added to the hippocampal tissue (10 ml/250 mg wet weight). Samples were sonicated (4 times at 30 seconds) and centrifuged for 45 minutes (14,000 g) at 4° C. The supernatant was decanted and stored on ice. Ten milliliters of the soluble cytoplasmic extraction reagent was added to the remaining pellet and the sonication and centrifugation steps were repeated. The supernatant was decanted, combined with the previous supernatant and SpeedVac (Savant Instruments, Halbrook, N.Y.) dried. Each sample was dissolved in 2 ml of 2-D lysis buffer (6 M urea, 2 M thiourea, 4% CHAPS, 40 mM Tris, 65 mM dithiothreitol (DTT), 1 mM sodium vanadate, 1 mM sodium fluoride, protease inhibitor tablet (#1836145, Roche)), concentrated and desalted (Centricon tube; 6500 rpm) at 10° C. for 12 hours.
Two-dimensional gel electrophoresis. First dimensional isoelectric focusing (IEF) was performed on 18 cm IPG strips (pH 4-7) using an IPGphor unit (Amersham Pharmacia). Each strip was rehydrated for 16 hours with sample lysate (˜500 ug) in a final volume of 400 uL of IEF solution (10 uL of bromophenol blue (0.25% w/v); 2 uL of Ampholyte (pH 4-7, Amersham #17-6000-86); 2-D lysis buffer). […] The strips were then subjected to a two-step equilibration (50 mM Tris; 2% SDS; 30% glycerol) in (A) 0.5% DTT (Bio-Rad) and (B) 4.5% iodoacetamide (Sigma) buffers before proceeding to SDS-PAGE. […] Molecular masses were determined by running standard protein markers (Genomic Solutions Inc.), covering the range 10-200 kDa as well as internal verification via landmark proteins within the gel. […]
as §4

[11] = system: Cytochrome C oxidase polypeptide VB, mitochondrial precursor (COX5B); assay: 2-DE proteome analysis of rat hippocampus: COX5B; settings: rat hippocampus cytosolic extract, 10 mg/kg i.p. daily 14 days, vs control; gel spot 86
Protocol: as §1, §2, §3, §4

Row | Structure (SMILES) | Fold change, Dihydropyrimidinase Related Protein-2 (DRP-2; CRMP-2; TOAD-64) [1] [Fold change] | Fold change, Serine Protease Inhibitor 2.1 (SPI-2.1) [2] [Fold change] | Fold change, NG, NG-Dimethylarginine Dimethylaminohydrolase 1 (DDAH1) [3] [Fold change] | Fold change, Pyruvate Dehydrogenase E1 component beta subunit [4] [Fold change] | Fold change, L-Lactate Dehydrogenase B Chain [5] [Fold change] | Fold change, Ras-related protein RAB-4A [6] [Fold change] | Fold change, Ras-related protein RAB-1B [7] [Fold change] | Fold change, Fatty Acid-Binding Protein, Heart (H-FABP) [8] [Fold change] | Fold change, D-dopachrome tautomerase (D-dopachrome tautomerase) [Fold change] | Fold change, Glutathione S-Transferase Yb3 [9] [Fold change] | Fold change, Proteasome subunit alpha type 2 ([10]; gel spot 27) [Fold change] | Fold change, Proteasome subunit alpha type 2 ([10]; gel spot 27, listed as fluoxetine) [Fold change] | Fold change, Cytochrome C oxidase polypeptide VB (COX5B) [11] [Fold change] | Fold change, Proteasome subunit alpha type 2 ([10]; gel spot 27, listed as venlafaxine) [Fold change]
1 | CNCCC(Oc1ccc(C(F)(F)F)cc1)c1ccccc1 (centres unmarked) [Fluoxetine, fluoxetine] | 2.6 | 2.9 | 1.6 | 3.2 | 2.5 | 1.5 | 1.5 | 1.6 | 2.2 | 0.5 | 6.1 | 6 | 3.2 | 
2 | COc1ccc(C(CN(C)C)C2(O)CCCCC2)cc1 (centres unmarked) [Venlafaxine, venlafaxine] | 4.1 | 1.9 | 2.2 | 2.6 | 2.5 | 1.5 | 1.5 | 2.1 | 2.3 | 0.5 | 10.6 |  | 4 | 10
